Assay results: patent US20080200454A1, “CARBON-LINKED TETRAHYDRO-PYRAZOLO-PYRIDINE MODULATORS OF CATHEPSIN S” (priority 2007, published 2008)
pIC50: −log10 of the molar value. Where two headings read alike, the source gives them in different places.

Molecular target: Recombinant human cathepsin S (CatS) (Homo sapiens, UniProt P25774)
Test: Recombinant human cathepsin S (CatS) inhibition assay, fluorogenic substrate Z-Valine-Valine-Arginine-AMC;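 note: Baculovirus-expressed CatS in pH 5.0 sodium acetate buffer with DTT and NaCl, fluorescence read each minute over 20 min, inhibition derived from rate slope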

Sequence of Recombinant human cathepsin S (CatS) (P25774 115-331): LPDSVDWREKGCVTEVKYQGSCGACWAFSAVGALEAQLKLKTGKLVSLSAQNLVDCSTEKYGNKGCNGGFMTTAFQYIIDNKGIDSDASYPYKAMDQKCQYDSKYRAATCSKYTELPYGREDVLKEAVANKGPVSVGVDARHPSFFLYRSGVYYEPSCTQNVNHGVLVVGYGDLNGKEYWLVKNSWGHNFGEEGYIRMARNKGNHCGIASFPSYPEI

| SMILES | pIC50 (CatS IC50) | pIC50 |
| --- | --- | --- |
| CS(=O)(=O)N1CCc2c(c(-c3ccc(Cl)c(C#Cc4ccc(CNC5CCCC5)cc4)c3)nn2CCCN2CCOCC2)C1 [Example 325, N-{[4-({2-Chloro-5-[5-(methylsulfonyl)-1-(3-morpholin-4-ylpropyl)-4,5,6,7-tetrahydro-1H-pyrazolo[4,3-c]pyridin-3-yl]phenyl}ethynyl)phenyl]methyl}cyclopentanamine] | 5.84 | – |
| CS(=O)(=O)N1CCc2c(c(-c3ccc(Cl)c(C#Cc4ccc(CNC5CCCCC5)cc4)c3)nn2CCCN2CCOCC2)C1 [Example 326, N-{[4-({2-Chloro-5-[5-(methylsulfonyl)-1-(3-morpholin-4-ylpropyl)-4,5,6,7-tetrahydro-1H-pyrazolo[4,3-c]pyridin-3-yl]phenyl}ethynyl)phenyl]methyl}cyclohexanamine] | 5.86 | – |
| CS(=O)(=O)N1CCc2c(c(-c3ccc(Cl)c(C#Cc4ccc(NCCc5ccccc5)cc4)c3)nn2CCCN2CCOCC2)C1 [Example 327, 4-({2-Chloro-5-[5-(methylsulfonyl)-1-(3-morpholin-4-ylpropyl)-4,5,6,7-tetrahydro-1H-pyrazolo[4,3-c]pyridin-3-yl]phenyl}ethynyl)-N-(2-phenylethyl)aniline] | 6.12 | – |
| CS(=O)(=O)N1CCc2c(c(-c3ccc(Cl)c(C#Cc4ccc(CNCc5ccc(Cl)cc5)cc4)c3)nn2CCCN2CCC(N3CCCC3=O)CC2)C1 [Example 328, 1-(1-{3-[3-(4-Chloro-3-{[4-({[(4-chlorophenyl)methyl]amino}methyl)phenyl]ethynyl}phenyl)-5-(methylsulfonyl)-4,5,6,7-tetrahydro-1H-pyrazolo[4,3-c]pyridin-1-yl]propyl}piperidin-4-yl)pyrrolidin-2-one] | 7.70 | – |
| CC(C)(C)OC(=O)NC1CCN(CCCn2nc(-c3ccc(Cl)c(C#Cc4ccc(CNCc5ccc(Cl)cc5)cc4)c3)c3c2CCN(S(C)(=O)=O)C3)CC1 [Example 329, 1,1-Dimethylethyl (1-{3-[3-(4-chloro-3-{[4-({[(4-chlorophenyl)methyl]amino}methyl)phenyl]ethynyl}phenyl)-5-(methylsulfonyl)-4,5,6,7-tetrahydro-1H-pyrazolo[4,3-c]pyridin-1-yl]propyl}piperidin-4-yl)carbamate] | 7.52 | – |
| CS(=O)(=O)N1CCc2c(c(-c3ccc(Cl)c(C#Cc4ccc(CNCc5ccc(Cl)cc5)cc4)c3)nn2CCCN2CCC(O)CC2)C1 [Example 330, 1-{3-[3-(4-Chloro-3-{[4-({[(4-chlorophenyl)methyl]amino}methyl)phenyl]ethynyl}phenyl)-5-(methylsulfonyl)-4,5,6,7-tetrahydro-1H-pyrazolo[4,3-c]pyridin-1-yl]propyl}piperidin-4-ol] | 7.05 | – |
| CS(=O)(=O)N1CCc2c(c(-c3ccc(Cl)c(C#Cc4ccc(CNCc5ccc(Cl)cc5)cc4)c3)nn2CCCN2CCC(N)CC2)C1 [Example 331, 1-{3-[3-(4-Chloro-3-{[4-({[(4-chlorophenyl)methyl]amino}methyl)phenyl]ethynyl}phenyl)-5-(methylsulfonyl)-4,5,6,7-tetrahydro-1H-pyrazolo[4,3-c]pyridin-1-yl]propyl}piperidin-4-amine] | 6.77 | – |
| CS(=O)(=O)N1CCc2c(c(-c3ccc(Cl)c(C#Cc4ccc(CNCc5ccc(Cl)cc5)cc4)c3)nn2CC(O)CN2CCOCC2)C1 (stereo not shown) [Example 332, 1-[3-(4-Chloro-3-{[4-({[(4-chlorophenyl)methyl]amino}methyl)phenyl]ethynyl}phenyl)-5-(methylsulfonyl)-4,5,6,7-tetrahydro-1H-pyrazolo[4,3-c]pyridin-1-yl]-3-morpholin-4-ylpropan-2-ol] | – | 6.72 |
| CS(=O)(=O)N1CCc2c(c(-c3ccc(Cl)c(C#Cc4ccc(CNCc5ccc(Cl)cc5)cc4)c3)nn2CCCN2CCCC2)C1 [Example 333, 1-[4-({2-Chloro-5-[5-(methylsulfonyl)-1-(3-pyrrolidin-1-ylpropyl)-4,5,6,7-tetrahydro-1H-pyrazolo[4,3-c]pyridin-3-yl]phenyl}ethynyl)phenyl]-N-[(4-chlorophenyl)methyl]methanamine] | 6.74 | – |
| CCOC(=O)C1CCN(CCCn2nc(-c3ccc(Cl)c(C#Cc4ccc(CNCc5ccc(Cl)cc5)cc4)c3)c3c2CCN(S(C)(=O)=O)C3)CC1 [Example 334, Ethyl 1-{3-[3-(4-chloro-3-{[4-({[(4-chlorophenyl)methyl]amino}methyl)phenyl]ethynyl}phenyl)-5-(methylsulfonyl)-4,5,6,7-tetrahydro-1H-pyrazolo[4,3-c]pyridin-1-yl]propyl}piperidine-4-carboxylate] | – | 7.52 |
| CS(=O)(=O)N1CCc2c(c(-c3ccc(Cl)c(C#Cc4ccc(CNCc5ccc(Cl)cc5)cc4)c3)nn2CCCN2CCC3(CC2)OCCO3)C1 [Example 335, 1-{4-[(2-Chloro-5-{1-[3-(1,4-dioxa-8-azaspiro[4.5]dec-8-yl)propyl]-5-(methylsulfonyl)-4,5,6,7-tetrahydro-1H-pyrazolo[4,3-c]pyridin-3-yl}phenyl)ethynyl]phenyl}-N-[(4-chlorophenyl)methyl]methanamine] | – | 7.22 |
| CS(=O)(=O)N1CCc2c(c(-c3ccc(Cl)c(C#Cc4ccc(CNCc5ccc(Cl)cc5)cc4)c3)nn2CCCN2CCC(C(=O)O)CC2)C1 [Example 336, 1-{3-[3-(4-Chloro-3-{[4-({[(4-chlorophenyl)methyl]amino}methyl)phenyl]ethynyl}phenyl)-5-(methylsulfonyl)-4,5,6,7-tetrahydro-1H-pyrazolo[4,3-c]pyridin-1-yl]propyl}piperidine-4-carboxylic acid] | 6.82 | – |
| CS(=O)(=O)N1CCc2c(c(-c3ccc(Cl)c(C#Cc4ccc(CNCc5ccc(Cl)cc5)cc4)c3)nn2CCCN2CCC(CO)CC2)C1 [Example 337, (1-{3-[3-(4-Chloro-3-{[4-({[(4-chlorophenyl)methyl]amino}methyl)phenyl]ethynyl}phenyl)-5-(methylsulfonyl)-4,5,6,7-tetrahydro-1H-pyrazolo[4,3-c]pyridin-1-yl]propyl}piperidin-4-yl)methanol] | 7.15 | – |
| CS(=O)(=O)N1CCc2c(c(-c3ccc(Cl)c(C#Cc4ccc(CNCc5ccc(Cl)cc5)cc4)c3)nn2CCCN2CCC(N3CCCCC3=O)CC2)C1 [Example 338, 1′-{3-[3-(4-Chloro-3-{[4-({[(4-chlorophenyl)methyl]amino}methyl)phenyl]ethynyl}phenyl)-5-(methylsulfonyl)-4,5,6,7-tetrahydro-1H-pyrazolo[4,3-c]pyridin-1-yl]propyl}-1,4′-bipiperidin-2-one] | 7.70 | – |
| COc1ccc(CNCc2ccc(C#Cc3cc(-c4nn(CCCN5CCOCC5)c5c4CN(S(C)(=O)=O)CC5)ccc3Cl)cc2)cc1 [Example 339, 1-[4-({2-Chloro-5-[5-(methylsulfonyl)-1-(3-morpholin-4-ylpropyl)-4,5,6,7-tetrahydro-1H-pyrazolo[4,3-c]pyridin-3-yl]phenyl}ethynyl)phenyl]-N-{[4-(methyloxy)phenyl]methyl}methanamine] | – | 6.64 |
| CS(=O)(=O)N1CCc2c(c(-c3ccc(Cl)c(C#Cc4ccc(CNCC(F)(F)F)cc4)c3)nn2CCCN2CCOCC2)C1 [Example 340, N-{[4-({2-Chloro-5-[5-(methylsulfonyl)-1-(3-morpholin-4-ylpropyl)-4,5,6,7-tetrahydro-1H-pyrazolo[4,3-c]pyridin-3-yl]phenyl}ethynyl)phenyl]methyl}-2,2,2-trifluoroethanamine] | 6.41 | – |
| CS(=O)(=O)N1CCc2c(c(-c3ccc(Cl)c(C#Cc4ccc(CNCC5CC5)cc4)c3)nn2CCCN2CCOCC2)C1 [Example 341, 1-[4-({2-Chloro-5-[5-(methylsulfonyl)-1-(3-morpholin-4-ylpropyl)-4,5,6,7-tetrahydro-1H-pyrazolo[4,3-c]pyridin-3-yl]phenyl}ethynyl)phenyl]-N-(cyclopropylmethyl)methanamine] | 6.08 | – |
| CS(=O)(=O)N1CCc2c(c(-c3ccc(Cl)c(C#Cc4ccc(CN[C@H](CO)c5ccccc5)cc4)c3)nn2CCCN2CCOCC2)C1 [Example 342, (2S)-2-({[4-({2-Chloro-5-[5-(methylsulfonyl)-1-(3-morpholin-4-ylpropyl)-4,5,6,7-tetrahydro-1H-pyrazolo[4,3-c]pyridin-3-yl]phenyl}ethynyl)phenyl]methyl}amino)-2-phenylethanol] | 6.51 | – |
| CS(=O)(=O)N1CCc2c(c(-c3ccc(Cl)c(C#Cc4ccc(CNCc5ccc(Cl)cc5)cc4)c3)nn2CCCN2CCC(N3CCOCC3)CC2)C1 [Example 343, 1-{4-[(2-Chloro-5-{5-(methylsulfonyl)-1-[3-(4-morpholin-4-ylpiperidin-1-yl)propyl]-4,5,6,7-tetrahydro-1H-pyrazolo[4,3-c]pyridin-3-yl}phenyl)ethynyl]phenyl}-N-[(4-chlorophenyl)methyl]methanamine] | 7.40 | – |
| CC1CCN(CCCn2nc(-c3ccc(Cl)c(C#Cc4ccc(CNCc5ccc(Cl)cc5)cc4)c3)c3c2CCN(S(C)(=O)=O)C3)CC1 [Example 344, 1-{4-[(2-Chloro-5-{1-[3-(4-methylpiperidin-1-yl)propyl]-5-(methylsulfonyl)-4,5,6,7-tetrahydro-1H-pyrazolo[4,3-c]pyridin-3-yl}phenyl)ethynyl]phenyl}-N-[(4-chlorophenyl)methyl]methanamine] | 7.22 | – |
| CS(=O)(=O)N1CCc2c(c(-c3ccc(Cl)c(C#Cc4ccc(CNCc5ccc(Cl)cc5)cc4)c3)nn2CCCN2CCC(C(F)(F)F)CC2)C1 [Example 345, 1-[4-({2-Chloro-5-[5-(methylsulfonyl)-1-{3-[4-(trifluoromethyl)piperidin-1-yl]propyl}-4,5,6,7-tetrahydro-1H-pyrazolo[4,3-c]pyridin-3-yl]phenyl}ethynyl)phenyl]-N-[(4-chlorophenyl)methyl]methanamine] | 6.96 | – |
| CC(=O)NC1CCN(CCCn2nc(-c3ccc(Cl)c(C#Cc4ccc(CNCc5ccc(Cl)cc5)cc4)c3)c3c2CCN(S(C)(=O)=O)C3)CC1 [Example 346, N-(1-{3-[3-(4-Chloro-3-{[4-({[(4-chlorophenyl)methyl]amino}methyl)phenyl]ethynyl}phenyl)-5-(methylsulfonyl)-4,5,6,7-tetrahydro-1H-pyrazolo[4,3-c]pyridin-1-yl]propyl}piperidin-4-yl)acetamide] | – | 7.70 |
